Data as given in patent publication US7026304B2, “2-alkylated-cyclodextrin derivatives: reversal agents for drug-induced neuromuscular block” (Akzo Nobel N.V., priority 2001, dated 2006).
Read-outs that look alike come from different tables or passages of the source.

Assays:
[1] = test system: steady-state neuromuscular block induced by the muscle relaxant rocuronium bromide (Roc); experiment: Reversal of neuromuscular blockade in anaesthetized guinea pigs in vivo; design: species or system guinea pig; settings: for % max reversal / concentration at maximum reversal: anaesthetized guinea pigs, rocuronium bromide-induced steady-state block; for concentration at maximum reversal: dose at which % max reversal was reached; for ED50, dose producing 50% reversal of steady-state neuromuscular block: anaesthetized male Dunkin-Hartley guinea pigs, rocuronium bromide infusion to steady-state block of 85–90%, reversal agent i.v. in increasing doses
Experimental: Reversal of Neuromuscular Blockade in Anaesthetized Guinea Pigs in vivo Male Dunkin-Hartley guinea pigs (bodyweight: 600–900 g) were anaesthetized by i.p. administration of 10 mg/kg pentobarbitone and 1000 mg/kg urethane. After tracheotomy, the animals were artificially ventilated using a Harvard small animal ventilator. A catheter was placed into the carotid artery for continuous monitoring of arterial blood pressure and the taking of blood samples for blood gas analysis. Heart rate was derived from the blood pressure signal. The sciatic nerve was stimulated (rectangular pulses of 0.5 ms duration at 10 s (0.1 Hz) intervals at a supramaximal voltage, using a Grass S88 Stimulator) and the force of M. gastrocnemius contractions was measured using a Grass FT03 force-displacement transducer. Contractions, blood pressure and heart rate were recorded on a multichannel Grass 7D recorder. Catheters were placed in both jugular veins. One catheter was used for the continuous infusion of a neuromuscular blocking agent. […] The other catheter was used for administration of increasing doses of the reversal agent. During continuous infusion of the neuromuscular blocking agent, single doses of increasing concentration of reversal agent were given.

[2] = test system: steady-state neuromuscular block induced by the muscle relaxant rocuronium bromide (Roc); settings: anaesthetized guinea pigs, as already described in WO 01/12202, cited from earlier work; for ED50, dose producing 50% reversal of steady-state neuromuscular block: parent cyclodextrins for comparison; for % max reversal / dose at maximum reversal: parent cyclodextrins

Row | Compound | % max reversal [1] | concentration at maximum reversal [1] | ED50, dose producing 50% reversal of steady-state neuromuscular block [1] | ED50, dose producing 50% reversal of steady-state neuromuscular block [2] | % max reversal [2] | dose at maximum reversal [2]
1 | OCCOCCSCCCO[C@H]1[C@H]2O[C@H]3[C@H](O)[C@@H](OCCCSCCOCCO)[C@@H](O[C@H]4[C@H](O)[C@@H](OCCCSCCOCCO)[C@@H](O[C@H]5[C@H](O)[C@@H](OCCCSCCOCCO)[C@@H](O[C@H]6[C@H](O)[C@@H](OCCCSCCOCCO)[C@@H](O[C@H]7[C@H](O)[C@@H](OCCCSCCOCCO)[C@@H](O[C@H]8[C@H](O)[C@@H](OCCCSCCOCCO)[C@@H](O[C@@H]([C@@H]1O)[C@@H](CO)O2)O[C@@H]8CO)O[C@@H]7CO)O[C@@H]6CO)O[C@@H]5CO)O[C@@H]4CO)O[C@@H]3CO [Example 10, Heptakis per-2-O-(9-hydroxy-7-oxa-4-thia-nonyl)-β-cyclodextrin] | 72% | (12) μmol · kg^−1 | 5.6 µmol/kg |  |  | 
2 | OC[C@H]1O[C@@H]2O[C@H]3[C@H](O)[C@@H](O)[C@@H](O[C@H]4[C@H](O)[C@@H](O)[C@@H](O[C@H]5[C@H](O)[C@@H](O)[C@@H](O[C@H]6[C@H](O)[C@@H](O)[C@@H](O[C@H]7[C@H](O)[C@@H](O)[C@@H](O[C@H]8[C@H](O)[C@@H](O)[C@@H](O[C@H]1[C@H](O)[C@H]2O)O[C@@H]8CO)O[C@@H]7CO)O[C@@H]6CO)O[C@@H]5CO)O[C@@H]4CO)O[C@@H]3CO [β-cyclodextrin] |  |  |  | 20 µmol/kg | 93% | (113) μmol · kg^−1
3 | OC[C@H]1O[C@@H]2O[C@H]3[C@H](O)[C@@H](O)[C@@H](O[C@H]4[C@H](O)[C@@H](O)[C@@H](O[C@H]5[C@H](O)[C@@H](O)[C@@H](O[C@H]6[C@H](O)[C@@H](O)[C@@H](O[C@H]7[C@H](O)[C@@H](O)[C@@H](O[C@H]8[C@H](O)[C@@H](O)[C@@H](O[C@H]9[C@H](O)[C@@H](O)[C@@H](O[C@H]1[C@H](O)[C@H]2O)O[C@@H]9CO)O[C@@H]8CO)O[C@@H]7CO)O[C@@H]6CO)O[C@@H]5CO)O[C@@H]4CO)O[C@@H]3CO [γ-cyclodextrin] |  |  |  | 4 µmol/kg | 104% | (47) μmol · kg^−1
4 | Octakis per-2-O-(3-carboxybenzyl)-γ-cyclodextrin, Na salt [Example 2] | 104% | (4.8) μmol · kg^−1 | 0.38 µmol/kg |  |  | 
